Each structure is given as a SMILES string.

The test concerns the target T1, sGC enzyme (Homo sapiens, UniProt Q02108+Q02153).
T1 construct: sGC enzyme activity values in HEK cells, determined by the GloSensor assay; host or cells: HEK293 cells stably expressing GloSensor 40F cGMP biosensor
T1 sequence (Q02153 1-619): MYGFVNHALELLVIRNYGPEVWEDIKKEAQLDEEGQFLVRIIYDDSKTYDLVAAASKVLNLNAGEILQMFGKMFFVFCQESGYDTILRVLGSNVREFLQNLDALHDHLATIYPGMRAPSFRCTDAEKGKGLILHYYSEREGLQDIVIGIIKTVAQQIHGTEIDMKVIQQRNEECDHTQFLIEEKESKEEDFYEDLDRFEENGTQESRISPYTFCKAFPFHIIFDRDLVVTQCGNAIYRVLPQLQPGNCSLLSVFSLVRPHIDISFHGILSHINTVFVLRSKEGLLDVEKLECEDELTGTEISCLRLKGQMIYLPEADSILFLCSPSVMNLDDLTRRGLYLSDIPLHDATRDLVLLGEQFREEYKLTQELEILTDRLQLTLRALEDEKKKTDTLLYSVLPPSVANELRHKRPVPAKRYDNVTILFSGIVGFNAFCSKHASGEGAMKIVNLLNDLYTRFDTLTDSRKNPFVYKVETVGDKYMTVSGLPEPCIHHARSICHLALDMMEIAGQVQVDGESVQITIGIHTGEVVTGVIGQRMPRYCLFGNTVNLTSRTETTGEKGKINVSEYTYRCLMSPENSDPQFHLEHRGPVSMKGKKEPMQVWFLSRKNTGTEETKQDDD
T1 sequence (Q02108 1-690): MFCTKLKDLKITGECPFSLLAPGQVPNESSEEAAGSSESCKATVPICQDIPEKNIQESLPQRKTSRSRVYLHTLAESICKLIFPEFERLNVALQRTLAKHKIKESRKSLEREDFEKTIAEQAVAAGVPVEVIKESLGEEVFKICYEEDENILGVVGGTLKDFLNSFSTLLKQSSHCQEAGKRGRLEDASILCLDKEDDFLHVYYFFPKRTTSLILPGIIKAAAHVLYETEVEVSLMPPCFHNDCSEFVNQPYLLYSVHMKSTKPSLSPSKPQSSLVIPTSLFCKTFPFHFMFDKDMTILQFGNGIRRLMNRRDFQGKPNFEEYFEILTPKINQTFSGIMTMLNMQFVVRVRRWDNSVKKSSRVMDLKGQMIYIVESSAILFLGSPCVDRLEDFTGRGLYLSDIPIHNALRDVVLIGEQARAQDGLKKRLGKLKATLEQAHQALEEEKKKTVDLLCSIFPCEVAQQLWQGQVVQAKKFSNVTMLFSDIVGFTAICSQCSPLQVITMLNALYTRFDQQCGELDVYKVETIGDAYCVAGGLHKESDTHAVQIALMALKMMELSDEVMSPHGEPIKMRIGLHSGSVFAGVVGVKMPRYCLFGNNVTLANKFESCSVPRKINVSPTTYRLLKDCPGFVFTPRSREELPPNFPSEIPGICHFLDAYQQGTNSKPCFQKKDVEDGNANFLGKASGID
As to the kind of experiment: cGMP GloSensor cell-based assay, 384-well format (Example 2a). The conditions noted are these: HEK293 GloSensor 40F cGMP cells; 10 μM DETA-NONOate; 50% of high control (30 μM Compound Y); read-out: Abs EC50. From the text: Human embryonic kidney cells (HEK293) cells expressing GloSensor™ 40F cGMP (Part No: CS182801, Promega) were used to evaluate the activity of test compounds. The luminescent biosensors (engineered luciferase) that were incorporated into these cells detect cGMP formed by the compounds stimulating the sGC enzyme and emit luminescence.
cGMP GloSensor cells were maintained in Dulbecco's Modification of Eagle's Medium (DMEM) supplemented with fetal bovine serum (FBS, 10% final) and hygromycine (200 ug/ml). The day before assay, cells were plated in DMEM with 10% FBS in a 50 μL volume at a density of 1.5×10^4 cells/well in a poly-D-lysine coated 384-well flat white-bottom plate (Corning Cat No 35661). Cells were incubated overnight at 37° C. in a humidified chamber with 5% CO2. The next day, medium was removed and cells were replaced with 40 ul/well of GloSensor™, 2 mM (Promega Cat No E1291). Cells were treated for 90 minutes at 25° C. to allow the substrate to equilibrate in the cells. Test compounds and Diethylenetriamine NONOate (DETA-NONOate, or DETA-NO) was diluted to 3 mM (20×) in serum-free CO2 independent medium and serially diluted at 4× dilutions to create 5× dose curve from which 10 ul was added to the wells (x μM concentration for test compound solution and 10 μM concentration for DETA-NONOate solution; wherein x is one of the following final concentrations: 30000 nM, 7500 nM, 1875 nM, 468.8 nM, 117.2 nM, 29.29 nM, 7.320 nM, 1.830 nM, 0.460 nM, 0.114 nM, and 0.029 nM).
For the kinetics studies, luminescense was measured right away for 0.2 sec per well with Envision (Perkin Elmer). For endpoint SAR screening, data were collected after 55 min incubation at room temperature.
Data were normalized to a high control using the following equation: 100*(Sample−Low Control)/(High Control−Low Control), where the low control is the average of 16 samples treated with 1% DMSO, and the high control is the average of 16 samples treated with 30 μM of Compound Y depicted below. Data were fit using a 4-parameter fit (log(agonist) vs. response—variable slope) using GraphPad Prism Software v.5. n=2 for all compounds. The Absolute (Abs) EC50 was interpolated from the curve fit and is defined as the concentration at which a given compound elicits 50% of the high control response after data normalization as indicated above. Compounds failing to elicit a minimum response of 50% are reported as >30 μM or ND. For compounds run in duplicate or n higher than 2, the result herein given is the geometric mean of the several results obtained.
The term EC50 denotes the concentration needed to bring the measured effect to its halfway point. As to `Fc1cccc(Cc2nc(-c3nc(C(F)(F)F)n[nH]3)cn3ncnc23)c1F` [Compound I-18, 8-(2,3-Difluorobenzyl)-6-(3-(trifluoromethyl)-1H-1,2,4-triazol-5-yl)-[1,2,4]triazolo[1,5-a]pyrazine], the concentration for a half-maximal effect (EC50) was at most 100 nM.
For the compound `Fc1cccc(Cc2nc(-c3nc(C(F)F)n[nH]3)cn3ncnc23)c1` [Compound I-21, 6-(3-(Difluoromethyl)-1H-1,2,4-triazol-5-yl)-8-(3-fluorobenzyl)-[1,2,4]triazolo[1,5-a]pyrazine], the EC50 was at most 100 nM.
With `CCn1nc(-c2cn3ccnc3c(Cc3ccccc3F)n2)nc1C` [Compound I-53, 6-(1-Ethyl-5-methyl-1H-1,2,4-triazol-3-yl)-8-(2-fluorobenzyl)imidazo[1,2-a]pyrazine], the EC50 lay within 100 to 1000 nM.
For `Fc1cc(F)cc(Cc2nc(-c3nc(C(F)F)n[nH]3)cn3ccnc23)c1` [Compound I-30, 8-(3,5-Difluorobenzyl)-6-(3-(difluoromethyl)-1H-1,2,4-triazol-5-yl)imidazo[1,2-a]pyrazine], the 50% effective concentration (EC50) is at most 100 nM.
In the case of `Cc1nc(-c2cn3ccnc3c(Cc3ccccc3F)n2)nn1CC(=O)C(C)(C)C` [Compound I-48, 1-(3-(8-(2-Fluorobenzyl)imidazo[1,2-a]pyrazin-6-yl)-5-methyl-1H-1,2,4-triazol-1-yl)-3,3-dimethylbutan-2-one] it was at most 100 nM; in that of `Fc1cc(F)cc(Cc2nc(-c3nc(C(F)F)n[nH]3)cn3ncnc23)c1` [Compound I-25, 8-(3,5-Difluorobenzyl)-6-(3-(difluoromethyl)-1H-1,2,4-triazol-5-yl)-[1,2,4]triazolo[1,5-a]pyrazine], at most 100 nM.
`Cc1nc(-c2cn3ccnc3c(Cc3ccccc3F)n2)nn1Cc1cccc(F)c1` [Compound I-47, 8-(2-Fluorobenzyl)-6-(1-(3-fluorobenzyl)-5-methyl-1H-1,2,4-triazol-3-yl)imidazo[1,2-a]pyrazine]: the EC50 is at most 100 nM.
In the case of `Fc1ccc(F)c(Cc2nc(-c3nc(C(F)(F)F)n[nH]3)cn3ncnc23)c1` [Compound I-33, 8-(2,5-Difluorobenzyl)-6-(3-(trifluoromethyl)-1H-1,2,4-triazol-5-yl)-[1,2,4]triazolo[1,5-a]pyrazine] it was at most 100 nM.
In the case of `Nc1nc(-c2cn3ccnc3c(Cc3ccccc3F)n2)nn1Cc1cccc(F)c1` [Compound I-58, 1-(3-Fluorobenzyl)-3-(8-(2-fluorobenzyl)imidazo[1,2-a]pyrazin-6-yl)-1H-1,2,4-triazol-5-amine] it was at most 100 nM; in that of `Cc1cnc2c(Cc3ccccc3F)nc(-c3nc(C(F)(F)F)n[nH]3)cn12` [Compound I-71, 8-(2-Fluorobenzyl)-3-methyl-6-(3-(trifluoromethyl)-1H-1,2,4-triazol-5-yl)imidazo[1,2-a]pyrazine], at most 100 nM; in that of `Fc1ccccc1Cc1nc(-c2nc(Cl)n[nH]2)cn2ccnc12` [Compound I-62, 6-(3-Chloro-1H-1,2,4-triazol-5-yl)-8-(2-fluorobenzyl)-imidazo[1,2-a]pyrazine], at most 100 nM.
In the case of `Cc1nc(-c2cn3ccnc3c(Cc3ccccc3F)n2)n(Cc2ccc(F)cc2)n1` [Compound I-42, 8-(2-fluorobenzyl)-6-(1-(4-fluorobenzyl)-3-methyl-1H-1,2,4-triazol-5-yl)imidazo[1,2-a]pyrazine] it was above 1000 nM; in that of `Fc1cccc(Cc2nc(-c3nc(C(F)F)n[nH]3)cn3ncnc23)c1F` [Compound I-17, 8-(2,3-Difluorobenzyl)-6-(3-(difluoromethyl)-1H-1,2,4-triazol-5-yl)-[1,2,4]triazolo[1,5-a]pyrazine], at most 100 nM; in that of `Fc1cc(F)cc(Cc2nc(-c3nc(C(F)(F)F)n[nH]3)cn3ccnc23)c1` [Compound I-29, 8-(3,5-Difluorobenzyl)-6-(3-(trifluoromethyl)-1H-1,2,4-triazol-5-yl)imidazo[1,2-a]pyrazine], at most 100 nM.
Turning to `Cc1c(F)cc(Cc2nc(-c3nc(C(F)F)n[nH]3)cn3ccnc23)cc1F` [Compound I-35, 8-(3,5-Difluoro-4-methylbenzyl)-6-(3-(difluoromethyl)-1H-1,2,4-triazol-5-yl)imidazo[1,2-a]pyrazine], the EC50 was at most 100 nM.
In the case of `Cc1nc(-c2cn3ccnc3c(Cc3ccccc3F)n2)nn1Cc1ccc(F)cc1` [Compound I-41, 8-(2-Fluorobenzyl)-6-(1-(4-fluorobenzyl)-5-methyl-1H-1,2,4-triazol-3-yl)imidazo[1,2-a]pyrazine] it was at most 100 nM.
As for `Fc1ccccc1Cc1nc(-c2nc(C(F)F)n[nH]2)cn2ncnc12` [Compound I-26, 6-(3-(Difluoromethyl)-1H-1,2,4-triazol-5-yl)-8-(2-fluorobenzyl)-[1,2,4]triazolo[1,5-a]pyrazine], the concentration giving a half-maximal response (EC50) is at most 100 nM.
In the case of `Cn1cnc2c(Cc3ccccc3F)nc(-c3nc(C(F)(F)F)n[nH]3)nc21` [Compound I-37, 6-(2-Fluorobenzyl)-9-methyl-2-(3-(trifluoromethyl)-1H-1,2,4-triazol-5-yl)-9H-purine] it was above 1000 nM; in that of `Cc1nc(-c2cn3ccnc3c(Cc3ccccc3F)n2)nn1CC(F)(F)F` [Compound I-38, 8-(2-fluorobenzyl)-6-(5-methyl-1-(2,2,2-trifluoroethyl)-1H-1,2,4-triazol-3-yl)imidazo[1,2-a]pyrazine], at most 100 nM; in that of `CCCCn1nc(-c2cn3ccnc3c(Cc3ccccc3F)n2)nc1C` [Compound I-56, 6-(1-Butyl-5-methyl-1H-1,2,4-triazol-3-yl)-8-(2-fluorobenzyl)imidazo[1,2-a]pyrazine], at most 100 nM.
In the case of `Cc1cn2cc(-c3nc(C(F)(F)F)n[nH]3)nc(Cc3ccccc3F)c2n1` [Compound I-31, 8-(2-Fluorobenzyl)-2-methyl-6-(3-(trifluoromethyl)-1H-1,2,4-triazol-5-yl)imidazo[1,2-a]pyrazine] it was 100 to 1000 nM.
With `Cc1nc(-c2cn3ccnc3c(Cc3ccccc3F)n2)nn1CCCCF` [Compound I-50, 8-(2-Fluorobenzyl)-6-(1-(4-fluorobutyl)-5-methyl-1H-1,2,4-triazol-3-yl)imidazo[1,2-a]pyrazine], the EC50 is 100 to 1000 nM.
In the case of `Fc1ccccc1Cc1nc(-c2nc(C(F)(F)F)n[nH]2)cn2c(F)cnc12` [Compound I-68, 3-Fluoro-8-(2-fluorobenzyl)-6-(3-(trifluoromethyl)-1H-1,2,4-triazol-5-yl)imidazo[1,2-a]pyrazine] it was at most 100 nM.

For the origin of these results see patent US11731977B2, “SGC stimulators” (Cyclerion Therapeutics, Inc., priority 2016, dated 2023).
